Where a name gives a salt, the structure may show the parent alone.
What was measured:
[1] = system: D1-MSNs in the NAc core; assay: AMPA/NMDA ratio, acute NAc slices treated ex-vivo with TNFα, D1-MSNs; format: cell-based, mouse; conditions: for mean AMPA/NMDA ratio, D1 MSNs: NAc core
Protocol: (§1) It has been previously shown that TNFα drives internalization of AMPARs on MSNs in the dorsal striatum (Lewitus et al., 2014). As repeated cocaine administration primarily affects direct-pathway MSNs, specific subpopulations of MSNs in the NAc core were tested for their response to TNFα. Acute NAc slices were incubated with TNFα (10 ng/ml or 100 ng/ml) and whole-cell recording were made for Drd1a-td Tomato (D1) positive and negative (D2) MSNs. […] A low dose of TNFα (10 ng/ml) had no significant effect on either cell type.
(§2) Repeated non-contingent administration of cocaine results in lower AMPA/NMDA ratios of excitatory inputs onto the NAc specifically on the D1-MSN subtype (Kim et al., 2011; Pascoli et al., 2012). To test whether the decrease in AMPA/NMDA ratios after repeated drug administration is due to the increase in TNFα expression, the AMPA/NMDA ratio was evaluated on D1 and D2 MSNs in the NAc core following cocaine or saline administration in WT and TNFα^−/− mice. […] This is consistent with the exocytosis of AMPARs observed with direct stimulation of D1Rs on MSNs (Mangiavacchi and Wolf, 2004). […] To test the hypothesis that potentiated D1-MSNs are more sensitive to TNFα, TNFα mice were treated with a single injection of cocaine and the effect of a low level of TNFα (10 ng/ml) on AMPA/NMDA ratios was evaluated. […] This treatment had no effect on D2-MSNs (FIG. 9B). To test whether cocaine-induced TNFα signaling would occlude further TNFα synaptic depression, wildtype animals were treated with cocaine for 5 days, and then treated striatel slices ex-vivo with TNFα (100 ng/ml). The AMPA/NMDA ratio on D1-MSNs (already reduced compared to saline treated animals; FIG. 5E) was not further reduced by treatment with TNFα (FIG. 5G).
. After a 1 h recovery period, slices were placed in a submersion-type recording chamber and perfused (1.5-2 ml/min) at 30° C. with a bicarbonate-buffered artificial CSF saturated with 95% O2/5% CO2 and containing (in mM): 119 NaCl, 2.5 KCl, 1 NaH2PO4, 1.3 MgCl2, 2.5 CaCl2, 26.2 NaHCO3, 11 glucose, and 0.05 picrotoxin. Whole-cell voltage-clamp recordings from medium spiny neurons in the nucleus accumbens core were obtained under visual control using infrared-differential interference contrast microscopy. Whole-cell electrodes (2-4 MΩ) were filled with internal solution containing the following (in mM): 120 CsMeSO3, 15 CsCl, 8 NaCl, 0.2 EGTA, 10 HEPES, 2 Mg-ATP, 0.3 Na-GTP, 10 tetraethylammonium, and 5 QX-314 [5-N-(2,6-dimethylphenylcarbamoylmethyl)triethylammonium bromide] (308-310 mOsm). pH was adjusted to 7.3 with CsOH. Cells with series resistance above 25 MΩ or a 20% change over time were excluded. Synaptic currents were evoked using stainless-steel bipolar stimulating electrodes placed 100-150 μm rostral to the recorded neurons. […]

[2] = system: D2-MSNs in the NAc core; assay: AMPA/NMDA ratio, acute NAc slices treated ex-vivo with TNFα, D2-MSNs; format: cell-based, mouse; conditions: for mean AMPA/NMDA ratio, D2 MSNs: NAc core
Protocol: as §1, §2
. […] Synaptic currents were evoked using stainless-steel bipolar stimulating electrodes placed 100-150 μm rostral to the recorded neurons. […]

[3] = system: primary rat microglia cultures; assay: TNFα mRNA in primary rat microglia cultures; format: cell-based; conditions: agonist 1 μm, 3 h
Protocol: For tissue, total RNA from the ventral striatum was extracted and isolated by RNAqueous-4PCR total RNA isolation kit (Ambion, AM1914), according to manufacturer's instructions. For microglia and astrocyte cultures, total RNA was isolated by RNeasy kit (Qiagen, 74136). For all sample types, 0.5 μg of total RNA was used for cDNA synthesis with Quantitect Reverse Transcription Kit (Qiagen, 205313), and quantitative RT-PCR was performed with Fast SYBR-Green Master Mix (Applied Biosystems) detected by StepOne Plus RealTime PCR system (Applied Biosystems). The sequences of qPCR primers used for mRNA quantification in this study were obtained from Integrated DNA Technologies, and are as follows: mouse TNFα forward, […] (SEQ ID NO: 1) [200 nM]; mouse TNFα reverse, […] (SEQ ID NO: 2) [200 nM]; mouse GAPDH forward, […] (SEQ ID NO: 3) [300 nM]; mouse GAPDH reverse, […] (SEQ ID NO: 4) [300 nM]; rat TNFα forward, […] (SEQ ID NO: 1) [600 nM]; rat TNFα reverse, […] (SEQ ID NO: 5) [600 nM]; rat cyclophilin forward, […] (SEQ ID NO: 6) [500 nM]; rat cyclophilin reverse, […] (SEQ ID NO: 7) [500 nM]. After 40 cycles, the Ct values were determined. To normalize the samples, ΔCt between TNFα and GADPH or cyclophilin Ct values was calculated. The x-fold difference in expression between the different treatments was then determined by subtraction of the ΔCt values and termed ΔΔCt. Finally, the total change was calculated as 2-ΔΔct and the relative amount compared with control samples was deducted.
Mixed microglia-astrocyte primary cultures were prepared from the striatum of postnatal rats (day 0), essentially as described (Beattie et al., 2002). Briefly, tissue was dissociated by […], and cells were seeded in glia media (MEM containing 5% FBS, 1.5% high sucrose MEM and 0.1% glutamax) on culture flasks (Corning) coated with poly-D lysine (Sigma) and placed in a humidified incubator at 37 C with 5% CO2. Neurons were removed by mechanical disruption and the medium was changed at day 1, and every 5-7 days after. […]

[4] = system: D1-MSNs in the NAc core; assay: AMPA/NMDA ratio on D1-MSNs after in vivo treatment; set-up: species or system mouse; conditions: L741,626 i.p. 3 mg/kg co-administered with daily cocaine over 5 days
Protocol: as §2
Because depotentiation of MSNs reduced cocaine-induced behavioural sensitization (Pascoli et al., 2012), it was tested whether re-activation of microglia would depress NAc synapses and suppress sensitization. To do this, monophosphoryl lipid A (MPLA), a detoxified variant of LPS, was used (Casella and Mitchell, 2008). MPLA acts as a weak TLR4 agonist that is at least 100-fold less pyrogenic than LPS (Cluff, 2010) and is used in humans as an adjuvant for several vaccine formulations. […] It was verified that MPLA activates microglia in the striatum, by injecting 10 μg MPLA IP after 10 days withdrawal from cocaine. […] This is consistent with previous observations that MPLA acts as a microglia modulator (Michaud et al., 2013). […] It was next tested if MPLA treatment would depress synaptic strength in the NAc core. After 10 days of withdrawal, animals were injected with MPLA and evaluated 24 hours later for AMPA/NMDA ratios on D1-MSNs.
240 μm thick coronal slices containing the nucleus accumbens were prepared from brains of 8-9 week-old mice (with fluorescent D1-MSNs). After a 1 h recovery period, slices were placed in a submersion-type recording chamber and perfused (1.5-2 ml/min) at 30° C. with a bicarbonate-buffered artificial CSF saturated with 95% O2/5% CO2 and containing (in mM): 119 NaCl, 2.5 KCl, 1 NaH2PO4, 1.3 MgCl2, 2.5 CaCl2, 26.2 NaHCO3, 11 glucose, and 0.05 picrotoxin. Whole-cell voltage-clamp recordings from medium spiny neurons in the nucleus accumbens core were obtained under visual control using infrared-differential interference contrast microscopy. Whole-cell electrodes (2-4 MΩ) were filled with internal solution containing the following (in mM): 120 CsMeSO3, 15 CsCl, 8 NaCl, 0.2 EGTA, 10 HEPES, 2 Mg-ATP, 0.3 Na-GTP, 10 tetraethylammonium, and 5 QX-314 [5-N-(2,6-dimethylphenylcarbamoylmethyl)triethylammonium bromide] (308-310 mOsm). pH was adjusted to 7.3 with CsOH. Cells with series resistance above 25 MΩ or a 20% change over time were excluded. Synaptic currents were evoked using stainless-steel bipolar stimulating electrodes placed 100-150 μm rostral to the recorded neurons. EPSCs were acquired with an Axopatch 200B (Molecular Devices), filtered at 2 kHz, and digitized at 10 kHz. Acquisition and analysis was performed using pCLAMP 10.2 (Molecular Devices). To calculate AMPA/NMDA ratios, evoked synaptic responses were collected at −70 mV to measure AMPAR-mediated EPSCs and at +40 mV to measure NMDAR-mediated EPSCs. Typically, 20 responses were averaged to generate an average response. The peak AMPA response was used to calculate the AMPAR component and the amplitude at 40 ms post the AMPAR peak response was used to calculate the slower NMDA component at +40 mV to calculate the AMPA/NMDA ratio.

[5] = system: TNFα; assay: TNFα mRNA / protein in ventral striatum (NAc) after in vivo treatment; set-up: species or system mouse; conditions: L741,626 i.p. 3 mg/kg 15 min before daily cocaine, 5 days; adult mice
Protocol: To determine the effect of in vivo cocaine exposure on TNFα levels in the ventral striatum, TNFα mRNA and protein levels were measured in mice given intraperitoneal injections of saline or cocaine. […] To understand the impact of TNFα on synaptic function in the NAc, AMPA/NMDA ratios were measured at glutamatergic synapses on MSNs in the NAc core. Alteration in NAc core AMPA receptors are involved in the expression of behavioral sensitization to psychostimulants (Kalives, 2009).
Mice (8-10 weeks) were perfused and their brains submerged overnight in 4% PFA, cryoprotected with 30% sucrose, and cut in 30 μm thick coronal slices using a cryostat. The sections were incubated for 4 hours with blocking solution (2% normal goat serum, 3% BSA, 0.2% Triton X-100 in PBS) before incubation overnight at 4 C with primary antibodies in blocking solution (rabbit anti-Iba1 antibody [019-19741, Wako; 1:800; RRID: AB_2566825], chicken anti-GFAP antibody [AB5541, Millipore; 1:500; RRID: AB_177521], rabbit anti-NeuN [ab104225, Abcam, 1:400; RRID: AB_10711153], and rabbit anti-TNFα antibody [ab6671, Abcam, 1:100; RRID: AB_305641] or mouse anti-TNFα antibody [ab1793, Abcam, 1:100; RRID: AB_302615]). Sections were washed (2×15 min with PBST [0.05% Tween20] and 1×15 min with PBS at RT) and incubated for 2 hrs at room temperature in secondary antibodies (anti-rabbit, anti-chicken, or anti-mouse IgG-conjugated Alexa Fluorochrome [Invitrogen; 1:400]). Sections were washed and briefly (<30 seconds) incubated with Hoechst 33342 [H1399, Molecular Probes; 1:10,000] in PBS. The stained sections were imaged using an Olympus FluoView FV1000 confocal microscope with Fluoview imaging software (FV10-ASW). Images of the ventral striatum (nucleus accumbens core and shell) were acquired with a 40× or 60× objective and stacks of 25-30 optical sections (1 μm per section) of depth were Z-projected into a single window and analysed using ImageJ software (NIH).
The number of Iba1+ microglia were manually counted from 212×212 μm (60× objectives) or 317×317 μm (40× objectives) images. TNFα intensity was measured using the mean grey value of the entire image while Iba1 intensity measurements were obtained using a thresholded area to highlight only the microglia. Cell body area (μm^2) was measured based on Iba1 staining and using the freehand selection tool. Additional analysis of microglia morphology in saline and cocaine treated mice was done using IMARIS software (Bitplane). […] The following parameters were analyzed for 40 microglia per group: total process length (sum of length of all processes), total process volume, process diameter and number of branch points and terminals. […]
After 40 cycles, the Ct values were determined.

Tumor necrosis factor alpha [TNFα]
mean AMPA/NMDA ratio, D1-MSNs ([1]; TNFα−/− mice treated 24 hours prior with cocaine, 10 ng/ml TNFα ex-vivo): 3.08±0.42
mean AMPA/NMDA ratio, D1 MSNs ([1]; slices treated with 10 ng/ml TNFα (printed D1(10 ug TNF))): 3.1±0.52
mean AMPA/NMDA ratio, D1 MSNs ([1]; slices treated with 100 ng/ml TNFα (printed D1(100 ug TNF))): 2.42±0.23
mean AMPA/NMDA ratio, D1-MSNs ([1]; wildtype mice after 5 daily cocaine injections, 100 ng/ml TNFα ex-vivo): 4.06±0.46
effect on AMPA/NMDA ratios in D2-MSNs ([2]; TNFα-KO mice, cocaine 24 hours prior, 10 ng/ml TNFα ex-vivo): had no effect
mean AMPA/NMDA ratio, D2 MSNs ([2]; slices treated with 10 ng/ml TNFα (printed D2(10 ug TNF))): 2.78±0.34
mean AMPA/NMDA ratio, D2 MSNs ([2]; slices treated with 100 ng/ml TNFα (printed D2(100 ug TNF))): 2.02±0.18

CCCN[C@H]1CCc2nc(N)sc2C1 [pramipexole, pramipexole dihydrochloride]
change in TNFα mRNA in primary rat microglia cultures [3]: did not affect

OC1(c2ccc(Cl)cc2)CCN(Cc2c[nH]c3ccccc23)CC1 [L741,626]
AMPA/NMDA ratio on D1-MSNs vs cocaine alone [4]: increase
TNFα mRNA in ventral striatum tissue [5]: significantly decreases

Oc1cc2c(cc1O)C(c1ccccc1)CNCC2 (centres unmarked) [SKF-38393]
change in TNFα mRNA in primary rat microglia cultures [3]: had no effect

Reference: patent US10328092B2, “Methods and compositions for treatment of drug addiction” (The Royal Institution for the Advancement of Learning / …, priority 2015, dated 2019)
